Experimental data: patent US12285399B2, “Composition comprising bornyl acetate or pharmaceutically acceptable salt thereof as active ingredient for prevention or treatment of stress-related disorder” (UNIVERSITY-INDUSTRY COOPERATION GROUP OF KYUNG HEE …, priority 2019, dated 2025)

What was measured:
Format in all cases: in vivo, C57BL/6NTac mice
corticosterone = test: Serum stress hormone (corticosterone) ELISA in CRS model; conditions: CRS+BA group, 14 days
Protocol: In order to confirm the antidepressant efficacy of bornyl acetate on the animal model of stress depression, an animal model of depression induced by chronic restrained stress (CRS) was prepared. Specifically, the animal model, 8-week-old male C57BL/6NTac mice after birth (Narabiotechnology, Korea; weight 22-24 g) had been stabilized for 1 week. A 50 ml conical tube (SPL Life sciences, Pocheon, Korea) was punched to make a hole, thereby making a restraint frame. The mice were put in the frame and restrained for 2 hours every day for 14 days. After restraint, the mice were allowed to freely ingest water and food in the home cage. Bornyl acetate (25, 50 and 100 mg/kg) was orally administered 1 hour before inducing restrained stress every day. 14 days later, the mice were anesthetized, and the blood was collected. The blood was centrifuged at 5,000 rpm for 15 minutes to separate serum. In order to confirm the level of corticosterone, a stress hormone, in serum, an enzyme-linked immunosorbent assay (ELISA) kit (Enzo life sciences, Farmingdale, NY, USA) was used for analysis.

c-Fos = test: Immunohistochemical staining for c-Fos in brain of CRS model; conditions: hippocampus and amygdala, CRS+BA group, 100 mg/kg oral
Protocol: In order to confirm the antidepressant efficacy of bornyl acetate on the animal model of stress depression, an animal model of depression induced by chronic restrained stress (CRS) was prepared. Specifically, the animal model, 8-week-old male C57BL/6NTac mice after birth (Narabiotechnology, Korea; weight 22-24 g) had been stabilized for 1 week. A 50 ml conical tube (SPL Life sciences, Pocheon, Korea) was punched to make a hole, thereby making a restraint frame. The mice were put in the frame and restrained for 2 hours every day for 14 days. After restraint, the mice were allowed to freely ingest water and food in the home cage. Bornyl acetate (100 mg/kg) was administered orally 1 hour before induction of restraint stress every day. 14 days later, the mice were anesthetized, and 4% paraformaldehyde was perfused into the heart. Then, the mice were fixed, and the brain was excised. The excised brain was immersed in 4% paraformaldehyde and fixed at 4° C. for one more day. It was then changed to 30% sucrose, and the brain was stored at 4° C. for 3 days or more to prevent freeze damage. The brain was cut into a thickness of 30 μm using a cryocut microtome to prepare the frozen sections. […]

COX-2 mRNA = test: RT-PCR of COX-2 mRNA in brain (hippocampus and amygdala) of CRS model; conditions: CRS+BA group, 100 mg/kg oral
Protocol: In order to confirm the antidepressant efficacy of bornyl acetate on the animal model of stress depression, an animal model of depression induced by chronic restrained stress (CRS) was prepared. Specifically, the animal model, 8-week-old male C57BL/6NTac mice after birth (Narabiotechnology, Korea; weight 22-24 g) had been stabilized for 1 week. A 50 ml conical tube (SPL Life sciences, Pocheon, Korea) was punched to make a hole, thereby making a restraint frame. The mice were put in the frame and restrained for 2 hours every day for 14 days. After restraint, the mice were allowed to freely ingest water and food in the home cage.
In order to confirm the inhibitory effect of bornyl acetate on the expression of inflammatory mediators in an animal model of depression induced by chronic restrained stress, mRNA expression was confirmed using reverse transcription-polymerase chain reaction (RT-PCR). Bornyl acetate (100 mg/kg) was orally administered 1 hour before inducing the restrained stress every day. […]
Western blot and RT-PCR analysis were performed in the brain (hippocampus and amygdala) of an animal model of chronic restrained stress (CRS)-induced stress depression to exam and quantify the activation level of inflammatory mediators, thereby verifying the modulating effect of bornyl acetate on the inflammatory response in the brain. […]

## CC(=O)OC1CC2CCC1(C)C2(C)C (centres unmarked) [BA, bornyl acetate]
corticosterone; 50 mg/kg oral
  level of stress hormone (corticosterone) in serum: 2869.8 pg/mL
corticosterone; 100 mg/kg oral
  level of stress hormone (corticosterone) in serum: 2202.5 pg/mL
c-Fos
  distribution of cells immunostained by c-Fos: consistent
COX-2 mRNA; amygdala
  mRNA expression of COX-2 (CRS-induced increase): significantly inhibited
COX-2 mRNA; hippocampus
  mRNA expression of COX-2 (CRS-induced increase): significantly inhibited
